Test results taken from patent US20220033397A1, “PHARMACEUTICAL COMPOUNDS AND THEIR USE AS INHIBITORS OF UBIQUITIN SPECIFIC PROTEASE 19 (USP19)” (ALMAC DISCOVERY LIMITED, priority 2018, published 2022).

Molecular target: T1, Full-length USP19 (Homo sapiens, UniProt O94966)
T1 construct: Full-length USP19 was purchased from Boston Biochem (E-576); purchased Boston Biochem E-576
T1 sequence (O94966 1-1318): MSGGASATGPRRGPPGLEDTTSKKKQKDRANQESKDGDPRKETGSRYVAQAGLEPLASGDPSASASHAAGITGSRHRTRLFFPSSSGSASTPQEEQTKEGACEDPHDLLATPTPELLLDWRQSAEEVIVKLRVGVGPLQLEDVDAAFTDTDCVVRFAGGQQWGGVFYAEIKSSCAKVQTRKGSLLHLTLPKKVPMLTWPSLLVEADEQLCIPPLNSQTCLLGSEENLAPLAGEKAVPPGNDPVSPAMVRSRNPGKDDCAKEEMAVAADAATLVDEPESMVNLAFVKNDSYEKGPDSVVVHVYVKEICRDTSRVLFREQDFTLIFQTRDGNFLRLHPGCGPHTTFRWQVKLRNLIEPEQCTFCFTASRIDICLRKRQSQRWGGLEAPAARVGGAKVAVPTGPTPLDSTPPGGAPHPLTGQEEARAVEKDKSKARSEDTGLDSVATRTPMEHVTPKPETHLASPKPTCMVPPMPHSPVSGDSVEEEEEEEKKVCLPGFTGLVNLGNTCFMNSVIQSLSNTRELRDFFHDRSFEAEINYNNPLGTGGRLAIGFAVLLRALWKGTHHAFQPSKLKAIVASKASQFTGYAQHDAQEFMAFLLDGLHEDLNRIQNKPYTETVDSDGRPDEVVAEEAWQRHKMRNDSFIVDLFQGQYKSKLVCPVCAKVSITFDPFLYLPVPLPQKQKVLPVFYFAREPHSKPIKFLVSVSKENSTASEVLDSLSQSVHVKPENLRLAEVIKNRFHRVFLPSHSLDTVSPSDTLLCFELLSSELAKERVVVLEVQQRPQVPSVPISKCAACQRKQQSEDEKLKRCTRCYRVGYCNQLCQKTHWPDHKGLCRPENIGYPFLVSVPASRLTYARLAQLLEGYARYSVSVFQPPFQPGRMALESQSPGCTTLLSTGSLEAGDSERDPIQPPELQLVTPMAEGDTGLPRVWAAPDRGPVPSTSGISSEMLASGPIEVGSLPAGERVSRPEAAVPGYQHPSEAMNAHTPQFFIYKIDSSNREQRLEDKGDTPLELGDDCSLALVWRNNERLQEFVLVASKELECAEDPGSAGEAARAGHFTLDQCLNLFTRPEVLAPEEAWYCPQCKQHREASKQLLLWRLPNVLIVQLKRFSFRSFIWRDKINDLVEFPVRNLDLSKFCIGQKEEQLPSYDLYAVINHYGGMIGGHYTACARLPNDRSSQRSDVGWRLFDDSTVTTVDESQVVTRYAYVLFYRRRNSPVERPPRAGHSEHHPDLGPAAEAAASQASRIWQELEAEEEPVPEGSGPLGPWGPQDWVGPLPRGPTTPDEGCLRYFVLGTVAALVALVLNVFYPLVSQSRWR
Experiment: USP19 fluorescence polarisation (FP) homogeneous assay with Ubiquitin-Lys-TAMRA substrate
Format: biochemical
Conditions: 2.5 nM USP19, 30 min pre-incubation, average of at least two duplicate experiments
Method: Unless otherwise stated, all other reagents were purchased from Sigma. Enzymatic reactions were conducted in black flat bottom polystyrene 384-well plates (Nunc) and 30 μL total volume. […] Inhibitors were stored as 10 mM DMSO stocks in an inert environment (low humidity, dark, low oxygen, room temperature) using the Storage Pod System and serial dilutions were prepared in buffer just prior to the assay (from 200 μM to 2 μM, 8-18 data point curve).
Following incubation at RT for 30 min, the enzymatic reactions were initiated by dispensing the Ub substrate (500 nM, 10 μL). FP was measured every 15 min over a period of 90 min (within the linear range of the assay) using a Synergy 4 plate reader (BioTek) exciting at 530 nm and measuring the amount of parallel and perpendicular light at 575 nm. The FP signal was subsequently normalised to the no compound control.

Row | IC50 | SMILES
1 | 500 to 5000 nM | COc1cc2ncn(CC3(O)CCN(C(=O)[C@H](C)CC4CCCCC4)CC34CCCC4)c(=O)c2cc1OC (stereo partly drawn) [Example 52, 3-((7-((R)-3-Cyclohexyl-2-methylpropanoyl)-10-hydroxy-7-azaspiro[4.5]decan-10-yl)methyl)-6,7-dimethoxyquinazolin-4(3H)-one]
2 | 5000 to 50000 nM | C[C@H](CC1CCCCC1)C(=O)N1CCC(O)(Cn2cnc3[nH]ccc3c2=O)C2(CCCC2)C1 (stereo partly drawn) [Example 53, 3-((7-((R)-3-Cyclohexyl-2-methylpropanoyl)-10-hydroxy-7-azaspiro[4.5]decan-10-yl)methyl)-3,7-dihydro-4H-pyrrolo[2,3-d]pyrimidin-4-one]
3 | < 500 nM | CSc1ncc2c(=O)n(CC3(O)CCN(C(=O)[C@H](C)CC4CCCCC4)CC34CCCC4)n(C)c2n1 (stereo partly drawn) [Example 54, 2-((7-((R)-3-Cyclohexyl-2-methylpropanoyl)-10-hydroxy-7-azaspiro[4.5]decan-10-yl)methyl)-1-methyl-6-(methylthio)-1,2-dihydro-3H-pyrazolo[3,4-d]pyrimidin-3-one]
4 | < 500 nM | CSc1ncc2c(=O)n(CC3(O)CCN(C(=O)[C@H](C)CC4CCCCC4)CC34CCCC4)ccc2n1 (stereo partly drawn) [Example 55, 6-((7-((R)-3-Cyclohexyl-2-methylpropanoyl)-10-hydroxy-7-azaspiro[4.5]decan-10-yl)methyl)-2-(methylthio)pyrido[4,3-d]pyrimidin-5(6H)-one]
5 | < 500 nM | CSc1ncc2c(=O)n(CC3(O)CCN(C(=O)[C@H](C)CC(F)(F)F)CC34CCCC4)ccc2n1 (stereo partly drawn) [Example 56, 6-((10-Hydroxy-7-((R)-4,4,4-trifluoro-2-methylbutanoyl)-7-azaspiro[4.5]decan-10-yl)methyl)-2-(methylthio)pyrido[4,3-d]pyrimidin-5(6H)-one]
6 | 500 to 5000 nM | CNc1ncc2c(=O)n(CC3(O)CCN(C(=O)[C@H](C)CC(F)(F)F)CC34CCCC4)ccc2n1 (stereo partly drawn) [Example 57, 6-((10-Hydroxy-7-((R)-4,4,4-trifluoro-2-methylbutanoyl)-7-azaspiro[4.5]decan-10-yl)methyl)-2-(methylamino)pyrido[4,3-d]pyrimidin-5(6H)-one]
7 | 500 to 5000 nM | C[C@H](CC(F)(F)F)C(=O)N1CCC(O)(Cn2ccc3nc(N(C)C)ncc3c2=O)C2(CCCC2)C1 (stereo partly drawn) [Example 58, 2-(Dimethylamino)-6-((10-hydroxy-7-((R)-4,4,4-trifluoro-2-methylbutanoyl)-7-azaspiro[4.5]decan-10-yl)methyl)pyrido[4,3-d]pyrimidin-5(6H)-one]
8 | 5000 to 50000 nM | COc1ncc2c(=O)n(CC3(O)CCN(C(=O)[C@H](C)CC(F)(F)F)CC34CCCC4)ccc2n1 (stereo partly drawn) [Example 59, 6-((10-Hydroxy-7-((R)-4,4,4-trifluoro-2-methylbutanoyl)-7-azaspiro[4.5]decan-10-yl)methyl)-2-methoxypyrido[4,3-d]pyrimidin-5(6H)-one]
9 | 500 to 5000 nM | C[C@H](CC(F)(F)F)C(=O)N1CCC(O)(Cn2ccc3nc(N4CCOCC4)ncc3c2=O)C2(CCCC2)C1 (stereo partly drawn) [Example 60, 6-((10-Hydroxy-7-((R)-4,4,4-trifluoro-2-methylbutanoyl)-7-azaspiro[4.5]decan-10-yl)methyl)-2-morpholinopyrido[4,3-d]pyrimidin-5(6H)-one]
10 | 500 to 5000 nM | C[C@H](CC(F)(F)F)C(=O)N1CCC(O)(Cn2ccc3nc(N4CCN(C)CC4)ncc3c2=O)C2(CCCC2)C1 (stereo partly drawn) [Example 61, 6-((10-Hydroxy-7-((R)-4,4,4-trifluoro-2-methylbutanoyl)-7-azaspiro[4.5]decan-10-yl)methyl)-2-(4-methylpiperazin-1-yl)pyrido[4,3-d]pyrimidin-5(6H)-one]
11 | 500 to 5000 nM | C[C@H](CC(F)(F)F)C(=O)N1CCC(O)(Cn2ccc3nc(N=S(C)(C)=O)ncc3c2=O)C2(CCCC2)C1 (stereo partly drawn) [Example 62, 2-((Dimethyl(oxo)-λ^6-sulfaneylidene)amino)-6-((10-hydroxy-7-((R)-4,4,4-trifluoro-2-methylbutanoyl)-7-azaspiro[4.5]decan-10-yl)methyl)pyrido[4,3-d]pyrimidin-5(6H)-one]
12 | 500 to 5000 nM | C[C@H](CC(F)(F)F)C(=O)N1CCC(O)(Cn2ccc3nc(N4CCNCC4)ncc3c2=O)C2(CCCC2)C1 (stereo partly drawn) [Example 63, 6-((10-Hydroxy-7-((R)-4,4,4-trifluoro-2-methylbutanoyl)-7-azaspiro[4.5]decan-10-yl)methyl)-2-(piperazin-1-yl)pyrido[4,3-d]pyrimidin-5(6H)-one]
13 | 500 to 5000 nM | CSc1ncc2c(=O)n(CC3(O)CCN(C(=O)[C@H](C)CC(F)(F)F)CC34CCCC4)n(C)c2n1 (stereo partly drawn) [Example 64, 2-((10-Hydroxy-7-((R)-4,4,4-trifluoro-2-methylbutanoyl)-7-azaspiro[4.5]decan-10-yl)methyl)-1-methyl-6-(methylthio)-1,2-dihydro-3H-pyrazolo[3,4-d]pyrimidin-3-one]
14 | 500 to 5000 nM | C[C@H](CC1CCCCC1)C(=O)N1CCC(O)(Cn2cc(S(C)(=N)=O)c(Cl)cc2=O)C(C)(C)C1 (stereo partly drawn) [Example 67, 4-Chloro-1-((1-((R)-3-cyclohexyl-2-methylpropanoyl)-4-hydroxy-3,3-dimethylpiperidin-4-yl)methyl)-5-(S-methylsulfonimidoyl)pyridin-2(1H)-one]
15 | 500 to 5000 nM | C[C@H](CC1CCCCC1)C(=O)N1CCC(O)(Cn2cc(S(C)(=N)=O)c(-c3ccccc3)cc2=O)C(C)(C)C1 (stereo partly drawn) [Example 68, 1-((1-((R)-3-Cyclohexyl-2-methylpropanoyl)-4-hydroxy-3,3-dimethylpiperidin-4-yl)methyl)-5-(S-methylsulfonimidoyl)-4-phenylpyridin-2(1H)-one]
16 | 500 to 5000 nM | C[C@H](CC1CCCCC1)C(=O)N1CCC(O)(Cn2cc(N=S(C)(C)=O)c(Cl)cc2=O)C2(CCCC2)C1 (stereo partly drawn) [Example 69, 4-Chloro-1-((7-((R)-3-cyclohexyl-2-methylpropanoyl)-10-hydroxy-7-azaspiro[4.5]decan-10-yl)methyl)-5-((dimethyl(oxo)-λ^6-sulfaneylidene)amino)pyridin-2(1H)-one]
17 | < 500 nM | C[C@H](CC1CCCCC1)C(=O)N1CCC(O)(Cn2cc([S+](C)[O-])c(Cl)cc2=O)C2(CCCC2)C1 (stereo partly drawn) [Example 70, 4-Chloro-1-((7-((R)-3-cyclohexyl-2-methylpropanoyl)-10-hydroxy-7-azaspiro[4.5]decan-10-yl)methyl)-5-(methylsulfinyl)pyridin-2(1H)-one]
18 | < 500 nM | C[C@H](CC1CCCCC1)C(=O)N1CCC(O)(Cn2cc(S(C)(=N)=O)c(Cl)cc2=O)C2(CCCC2)C1 (stereo partly drawn) [Example 71, 4-Chloro-1-((7-((R)-3-cyclohexyl-2-methylpropanoyl)-10-hydroxy-7-azaspiro[4.5]decan-10-yl)methyl)-5-(S-methylsulfonimidoyl)pyridin-2(1H)-one]
19 | < 500 nM | C[C@H](CC1CCCCC1)C(=O)N1CCC(O)(Cn2cc(N=S(C)(C)=O)c(-c3ccccc3)cc2=O)C2(CCCC2)C1 (stereo partly drawn) [Example 72, 1-((7-((R)-3-Cyclohexyl-2-methylpropanoyl)-10-hydroxy-7-azaspiro[4.5]decan-10-yl)methyl)-5-((dimethyl(oxo)-λ^6-sulfaneylidene)amino)-4-phenylpyridin-2(1H)-one]
20 | 500 to 5000 nM | C[C@H](CC1CCCCC1)C(=O)N1CCC(O)(Cn2cc(-c3ccccc3)c(N=S(C)(C)=O)cc2=O)C2(CCCC2)C1 (stereo partly drawn) [Example 73, 1-((7-((R)-3-Cyclohexyl-2-methylpropanoyl)-10-hydroxy-7-azaspiro[4.5]decan-10-yl)methyl)-4-((dimethyl(oxo)-λ^6-sulfaneylidene)amino)-5-phenylpyridin-2(1H)-one]
